In patent publication US20240116913A1, “A CRYSTALLINE FORM OF (4-METHYL-2-[1,2,3]TRIAZOL-2-YL-PHENYL)-[(R)-3-(3-[1,2,3]TRIAZOL-2-YL-BENZYL)-MORPHOLIN-4-YL]-METHANONE” (Idorsia Pharmaceuticals Ltd, priority 2021, published 2024):

Tests used:
[1] = Bulk density and tapped density (Densi-tap tapping device); type: physicochemical; conditions: for Tapped density: after 3750 tappings; for Hausner ratio (HR) (ratio between tapped and bulk density): calculated from measured tapped and bulk densities; for Type of powder flow (flowability class from HR): classified from Hausner ratio; for Bulk density: powder without any processing, 10 mL glass cylinder
Protocol: Bulk and tapped density were measured on a Densi-tap tapping device from Matec using a 10 mL glass cylinder and using powder without any processing. For tapped density the value is reported after 3750 tappings.

[2] = Moisture sorption at 25° C. (dynamic vapor sorption, DVS); type: physicochemical; conditions: for Moisture picked up (mass change): range 0 to 95% RH at 25° C.
Protocol: Moisture sorption isotherm was collected on a multi sample instrument SPS-100n (Projekt Messtechnik, Ulm, Germany) operated in stepping mode at 25° C. The sample was allowed to equilibrate at 40% RH before starting a pre-defined humidity program 40-0-95-0-95-40% RH, steps of 5% RH and with a maximal equilibration time of 24 hours per step were applied. About 20 to 30 mg of each sample was used. The hygroscopic classification as disclosed herein is done according to the European Pharmacopeia Technical Guide (1999, page 86), that is, a material is classified as “not hygroscopic or “non-hygroscopic” when the increase in mass, as measured by the DVS method disclosed herein, is less than 0.2%; a material is classified as slightly hygroscopic, when the increase in mass is less than 2% and equal to or greater than 0.2% mass/mass; finally, a material is classified as hygroscopic, when the increase in mass is less than 15% and equal to or greater than 2% mass/mass. The mass change between 40% relative humidity and 80% relative humidity in the first adsorption scan was considered. Data shown are from the first upwards cycle.

[3] = listed as crystalline form 1 of ACT-539313

Tapped density [1] | Hausner ratio (HR) (ratio between tapped and bulk density) [1, 3] | Bulk density [1] | Moisture picked up (mass change) [2] | Tapped density ([1]; listed as amorphous ACT-539313) | Hausner ratio (HR) (ratio between tapped and bulk density) ([1]; listed as amorphous material) | Bulk density ([1]; listed as amorphous ACT-539313) | SMILES | Type of powder flow (flowability class from HR) [1, 3] | Hygroscopicity compared between solid forms ([2]; cf. FIGS. 4 and 5, Tables 1 and 3) | Type of powder flow (flowability class from HR) ([1]; listed as amorphous material) | Hygroscopic classification according to Ph. Eur. ([2]; DVS at 25° C., mass change between 40% and 80% RH, first adsorption scan)
0.46 g/mL | 1.47 | 0.31 g/mL | Material picks up about 0.1% |  |  |  | Cc1ccc(C(=O)N2CCOC[C@H]2Cc2cccc(-n3nccn3)c2)c(-n2nccn2)c1 [ACT-539313 in crystalline form 1, (4-Methyl-2-[1,2,3]triazol-2-yl-phenyl)-[(R)-3-(3-[1,2,3]triazol-2-yl-benzyl)-morpholin-4-yl]-methanone] | very poor (“very poor” (HR from 1.46 to 1.59)) | less hygroscopic than the amorphous ACT-539313 |  | 
 |  |  | ~2.6% of moisture in the range 0 | 0.13 g/mL | 2.26 | 0.06 g/mL | Cc1ccc(C(=O)N2CCOC[C@H]2Cc2cccc(-n3nccn3)c2)c(-n2nccn2)c1 [ACT-539313 in amorphous state, (4-Methyl-2-[1,2,3]triazol-2-yl-phenyl)-[(R)-3-(3-[1,2,3]triazol-2-yl-benzyl)-morpholin-4-yl]-methanone] |  |  | very, very poor (“very, very poor” (HR>1.60)) | slightly hygroscopic according to (classified as slightly hygroscopic, when the increase in mass is less than 2% and equal to or greater than 0.2% mass/mass)
